# Reference: patent US20220280594A1, “APPLICATION OF POLYPEPTIDE OR DERIVATIVE THEREOF” (CHENGDU HUITAI BIOMEDICINE CO., LTD., priority 2019, published 2022)
# Ends that are not written are not given here. PEG = not defined here
# What was measured:
# Format in all cases: cell-based
# [1] = test system: human pancreatic cancer cells (PANC-1); experiment: scratch assay, migration of PANC-1 cells; conditions: PANC-1, 10 μM, 48 hours; control group 66.65 ± 3.37
# Outline: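 PANC-1 monolayers were scratched, then cultured for 48 h with 10 μM test compound in 2% FBS medium, in three parallel wells per group against a PBS control. Migration rate (%) was calculated as (original minus current scratch width) / original width × 100, from imaged wells.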
# [2] = test system: human oral epidermoid carcinoma KB cells; experiment: scratch assay, migration of KB cells; conditions: 10 μM, 48 hours, control group 54.03 ± 4.21
# Outline: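 Monolayers of KB cells were scratched, washed with PBS, then cultured 48 hours in 2% FBS medium containing test polypeptide (10 μM) or PBS control, in triplicate wells. From images, migration rate (%) = (original − current scratch width)/original width × 100.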
# [3] = test system: human lung squamous carcinoma cells (NCI-H226); experiment: scratch assay, migration of NCI-H226 cells; conditions: NCI-H226, 10 μM, 48 hours; control group 65.31 ± 3.19
# Outline: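 A straight scratch was made in confluent NCI-H226 monolayers (1-2×10^5 cells/well). Cells were then kept 48 h in 2% FBS medium with 10 μM polypeptide or PBS control, triplicate wells. Migration rate (%) = (original − current scratch width)/original width ×100, from imaged scratch widths.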
# [4] = test system: human thyroid cancer cells (FRO); experiment: scratch assay, migration of FRO cells; conditions: 10 μM, 48 hours, control group 60.34 ± 8.32
# Outline: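 FRO monolayers were scratched, washed, and cultured 48 h in 2% FBS medium with polypeptide derivatives at 10 μM or PBS control, three wells per group. Migration rate (%) = (original − current scratch width)/original width × 100, measured from images.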
# [5] = test system: human liver adenocarcinoma cells (SK-HEP-1); experiment: transwell invasion assay, SK-HEP-1 cells; conditions: SK-HEP-1 transwell invasion, 10 μM, 24 hours; control group 767 ± 91
# Outline: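 Serum-free SK-HEP-1 cells were seeded in matrigel-coated upper chambers over complete medium. After 4-5 h, peptide was added to the upper chamber at 10 μM final. Following 24 h at 37° C., invaded cells were fixed, crystal violet-stained, imaged and counted.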
# [6] = test system: human lung cancer cells (95D); experiment: scratch assay, migration of 95D cells; conditions: 10 μM, 48 hours, control group 55.3 ± 3.19
# Outline: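 Confluent 95D monolayers were scratched, washed with PBS and cultured 48 h in 2% FBS medium containing peptide (10 μM) or PBS control, in triplicate wells. Scratch width was measured on images; migration rate (%) = (original width − current width)/original width × 100.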
# [7] = test system: human pancreatic cancer cells (PANC-1); experiment: transwell invasion assay, PANC-1 cells; conditions: PANC-1 transwell invasion, 10 μM, 24 hours; control group 727 ± 68
# Outline: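 Serum-free PANC-1 cells were seeded in matrigel-coated upper chambers with complete medium below. After 4-5 hours at 37° C., peptide was added at 10 μM final. Following 24 hours, invaded cells on the lower membrane surface were fixed, crystal violet-stained, imaged and counted against untreated controls.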
# [8] = test system: human liver adenocarcinoma cells (SK-HEP-1); experiment: transwell migration assay, SK-HEP-1 cells; conditions: SK-HEP-1 transwell migration, 10 μM, 24 hours; control group 1 782 ± 108, control group 2 768 ± 86
# Outline: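 SK-HEP-1 cells in serum-free medium seeded in upper transwell chamber (2-3×10^5 cells/mL) over complete medium; after 4-5 h at 37 °C, 5% CO2, peptide added at 10 μM final in upper chamber. After 24 h, migrated cells fixed in methanol, crystal-violet stained, imaged and counted.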
Substance,"Migration rate (%) (mean ± SD, P) [1]","Migration rate (%) (mean ± SD, P) [2]","Migration rate (%) (mean ± SD, P) [3]","Migration rate (%) (mean ± SD, P) [4]","Number of cells (mean ± SD, P), invaded cells [5]","Migration rate (%) (mean ± SD, P) [6]","Number of cells (mean ± SD, P), invaded cells [7]","Number of cells (mean ± SD, P), migrated cells [8]"
N29: SEQ ID NO: 1 with deletion of positions 1-5 and 15-18 and PEG modification at the amino terminal ({PEG}-LAKENVTQD; reading uncertain),"40.62 ± 4.97,* %","8.07 ± 1.79,*** %","40.30 ± 4.81,** %","5.12 ± 2.67,*** %","322 ± 56,***","30.30 ± 4.81,** %","213 ± 17,****","254 ± 14,****"
"N43: SEQ ID NO: 1 with addition of one amino acid at the amino terminal, deletion of position 18, PEG at the carboxyl terminal (RYRVRFLAKENVTQDAED-{PEG}; reading uncertain)","18.87 ± 6.90,*** %","11.22 ± 1.74,*** %","16.38 ± 7.71,*** %","19.78 ± 4.60,** %","107 ± 16,****","30.38 ± 4.71,** %","251 ± 10,****","157 ± 29,****"
"N53: SEQ ID NO: 1 with A15R, one amino acid added at each terminal, PEG modification at the carboxyl terminal (FYRVRFLAKENVTQDREDNC-{PEG}; reading uncertain)","15.85 ± 7.32,*** %","8.83 ± 1.75,*** %","41.05 ± 4.60,** %","20.32 ± 4.58,** %","143 ± 19,****","21.05 ± 6.60,** %","228 ± 25,****","265 ± 32,****"
"N33: SEQ ID NO: 1 with deletion of positions 1-5, addition of one amino acid and PEG modification at the carboxyl terminal (LAKENVTQDAEDNC-{PEG}; reading uncertain)","39.27 ± 3.14,* %","6.01 ± 1.62,*** %","40.73 ± 4.87,** %","7.03 ± 2.02,*** %","197 ± 32,****","30.73 ± 5.87,** %","345 ± 27,***","354 ± 31,***"
"N23: SEQ ID NO: 1 with substitution A7R, deletion of position 11 and of positions 15-18 (YRVRFLRKENTQDAED)","14.16 ± 8.36,*** %","10.57 ± 1.7,*** %","13.24 ± 8.19,*** %","34.39 ± 4.10,* %","456 ± 45,**","30.38 ± 4.68,** %","196 ± 26,****","276 ± 24,****"
N2: SEQ ID NO: 1 with deletion of one amino acid (position 18) at the carboxyl terminal (YRVRFLAKENVTQDAED),"32.74 ± 4.26,** %","6.82 ± 3.25,*** %","12.42 ± 8.44,*** %","22.88 ± 5.43,** %","432 ± 47,**","36.44 ± 4.16,** %","93 ± 19,****","104 ± 10,****"
N27: SEQ ID NO: 1 with addition of one amino acid at the carboxyl terminal and PEG modification at the carboxyl terminal (YRVRFLAKENVTQDAEDNC-{PEG}; reading uncertain),"27.19 ± 7.04,*** %","12.53 ± 3.88,** %","31.19 ± 5.96,*** %","13.42 ± 3.35,*** %","369 ± 52,***","37.20 ± 6.23,* %","242 ± 35,****","469 ± 56,**"
N39: SEQ ID NO: 1 with addition of two amino acids and PEG modification at the carboxyl terminal (YRVRFLAKENVTQDAEDNTC-{PEG}; reading uncertain),"16.29 ± 8.00,*** %","9.21 ± 4.20,*** %","21.82 ± 5.54,*** %","36.51 ± 4.36,* %","88 ± 25,****","43.19 ± 4.82,* %","278 ± 16,****","261 ± 25,****"
"N31: SEQ ID NO: 1 with deletion of positions 3, 4, 11 and 15-18 and PEG modification at the carboxyl terminal (YRFLAKENTQD-{PEG}; reading uncertain)","13.64 ± 7.59,*** %","7.17 ± 1.67,*** %","15.70 ± 8.17,*** %","9.77 ± 1.96,*** %","269 ± 17,****","25.70 ± 3.17,** %","365 ± 57,***","90 ± 6,****"
N9: SEQ ID NO: 1 with deletion of positions 15-18 and PEG modification at the amino terminal ({PEG}-YRVRFLAKENVTQD; reading uncertain),"29.12 ± 5.84,*** %","9.27 ± 2.63,*** %","35.47 ± 5.20,** %","20.51 ± 5.04,** %","288 ± 35,***","32.27 ± 4.69,** %","93 ± 6,****","174 ± 15,****"
"N26: SEQ ID NO: 1 with substitution A15R, addition of one amino acid at the amino terminal and one at the carboxyl terminal (FYRVRFLAKENVTQDREDNC)","26.65 ± 6.37,*** %","23.71 ± 4.86,* %","18.41 ± 7.90,*** %","11.21 ± 4.01,*** %","371 ± 27,***","37.20 ± 5.94,** %","231 ± 18,****","68 ± 19,****"
N25: SEQ ID NO: 1 with substitution N18R and addition of two amino acids at the carboxyl terminal (YRVRFLAKENVTQDAEDRCT),"25.36 ± 7.32,*** %","18.32 ± 2.63,** %","15.03 ± 8.16,*** %","14.31 ± 2.47,*** %","411 ± 30,***","40.70 ± 3.25,** %","247 ± 17,****","58 ± 15,****"
